Experimental data from PMC4144908, “Structural Insights of the ssDNA Binding Site in the Multifunctional Endonuclease AtBFN2 from Arabidopsis thaliana” (PLoS ONE, 2014).

Tests used:
[1] = target: T1, AtBFN2 (Arabidopsis thaliana, UniProt Q9C9G4); experiment: acid-soluble ssDNA release, A260; type: biochemical; design: gene ENDO2; ENDO2 cDNA with C-terminal 6xHis tag, overexpressed in transgenic Arabidopsis seedlings; three Zn ions; conditions: heat-denatured ssDNA substrate; 100 mM Tris pH 7, 37 °C, 10 min; 1 mM Na3VO4
T1 sequence (Q9C9G4 28-290): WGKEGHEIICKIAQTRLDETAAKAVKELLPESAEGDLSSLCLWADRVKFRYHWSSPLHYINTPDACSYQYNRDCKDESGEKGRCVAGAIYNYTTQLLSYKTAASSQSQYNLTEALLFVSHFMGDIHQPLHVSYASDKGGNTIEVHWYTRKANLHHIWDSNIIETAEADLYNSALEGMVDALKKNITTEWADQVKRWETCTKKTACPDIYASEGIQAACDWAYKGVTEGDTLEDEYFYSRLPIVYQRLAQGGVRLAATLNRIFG

[2] = target: T1, AtBFN2; design: gene ENDO2; conditions: active site, tri-zinc cluster; crystals grown with 0.2 M Na2HPO4, 0.1 M Hepes pH 7.5

Compound	% inhibition at 1 mM [1] [%]	X-ray crystal structure, 2.0 Å [2]
[O]=[V]([OH])([OH])[OH] [vanadate]	80	–
O=P(O)(O)O [phosphate]	–	have a phosphate anion displacing all coordinating waters, except Wat3 (Fig. 2D)
